{
  "source": "patent US6569843B1",
  "about": "“Steroidal sapogenins for the control of coccidiosis in animals” (priority 1999, dated 2003)",
  "format_in_all_cases": "in vivo",
  "key": {"[1]": {"system": "mixed culture of E. acervulina, E. maxima and E. tenella", "assay": "14 day coccidial challenge study, steroidal sapogenin and antibiotic compatibility in chicks (Example 5)", "conditions": "SS at 3.3 ppm where included, antibiotic doses not given; for Lesion Scores, Cecal / Lesion Scores, Middle / Lesion Scores, Upper: day 14"}, "[2]": {"system": "mixture of E. acervulina, E. maxima and E. tenella", "assay": "13 day coccidial challenge study in broiler chicks, weight and feed conversion (Example 3)", "source_text": "(§1) Birds were fed a standard corn soybean meal diet and water ad libitum. Birds were placed in 4 foot by 5 foot pens at the rate of 50 birds per pen. On day 6 all birds, except the negative control, were orally challenged with an inoculum comprised of a mixture of E. acervulina, E. maxima and E. tenella. Since each of these three specie of Eimeria produce intestinal lesions in distinctly different regions of the intestinal their effects can be partitioned when scoring the birds. On day 13 all birds were sacrificed by cervical dislocation and the intestines scored for coccidial lesions by the standard Johnson and Reid method."}, "E. acervulina [3]": {"system": "E. acervulina", "assay": "13 day coccidial challenge study, upper intestinal lesion score (Example 3)", "conditions": "day 13", "source_text": "as §1"}, "E. maxima [4]": {"system": "E. maxima", "assay": "13 day coccidial challenge study, middle intestinal lesion score (Example 3)", "conditions": "day 13", "source_text": "as §1"}, "E. tenella [5]": {"system": "E. tenella", "assay": "13 day coccidial challenge study, cecal lesion score (Example 3)", "conditions": "day 13", "source_text": "as §1"}, "[6]": {"system": "mixture of E. acervulina, E. maxima and E. tenella", "assay": "8 day coccidial challenge study in broiler chicks, mortality, weight gain, feed efficiency (Example 4)"}, "E. acervulina [7]": {"system": "E. acervulina", "assay": "8 day coccidial challenge study, upper lesion score (Example 4)", "conditions": "day 8"}, "E. maxima [8]": {"system": "E. maxima", "assay": "8 day coccidial challenge study, middle lesion score (Example 4)", "conditions": "day 8"}, "E. tenella [9]": {"system": "E. tenella", "assay": "8 day coccidial challenge study, cecal lesion score (Example 4)", "conditions": "day 8"}},
  "note": "Several values for one entry are separate records, joined by “and”; a condition that tells them apart may be missing. Identical values can stand only once.",
  "data": [
    {"compound": "Bacitracin Zinc", "values": [
      {"measurement": "Feed/Gain", "setting": "[1]", "result": 1.833},
      {"measurement": "Weight, gm", "setting": "[1]", "result": 259.7, "unit": "gm"},
      {"measurement": "Lesion Scores, Cecal", "setting": "[1]", "result": 1.50},
      {"measurement": "Lesion Scores, Middle", "setting": "[1]", "result": 2.08},
      {"measurement": "Lesion Scores, Upper", "setting": "[1]", "result": 1.50}
    ]},
    {"compound": "CC[C@@]1([C@@H]2O[C@@H]([C@H]3O[C@@](O)(CO)[C@H](C)C[C@@H]3C)C[C@@H]2C)CC[C@H]([C@]2(C)CC[C@]3(C[C@H](O)[C@@H](C)[C@@H]([C@@H](C)[C@@H](OC)[C@H](C)C(=O)O)O3)O2)O1", "note": "[Monensin]", "values": [
      {"measurement": "Feed/Gain", "setting": "[2]; 100 g/ton", "result": 1.843},
      {"measurement": "Weight, gm (average bird weight)", "setting": "[2]; 100 g/ton", "result": 233.0, "unit": "gm"},
      {"measurement": "Average intestinal lesion score, Upper, acervulina", "setting": "E. acervulina [3]; 100 g/ton", "result": 1.40},
      {"measurement": "Average intestinal lesion score, Middle, maxima", "setting": "E. maxima [4]; 100 g/ton", "result": 1.58},
      {"measurement": "Average intestinal lesion score, Cecal, tenella", "setting": "E. tenella [5]; 100 g/ton", "result": 1.64},
      {"measurement": "Feed/Gain", "setting": "[6]; 90 gm/ton", "result": 1.9033, "unit": "cd"},
      {"measurement": "Mortality, %", "setting": "[6]; 90 gm/ton", "result": 3.33, "unit": "a %"},
      {"measurement": "Weight Gain, gm", "setting": "[6]; 90 gm/ton", "result": 258.67, "unit": "d gm"},
      {"measurement": "Lesion Scores, Upper, E. acervulina", "setting": "E. acervulina [7]; 90 gm/ton", "result": 1.9667, "unit": "b"},
      {"measurement": "Lesion Scores, Middle, E. maxima", "setting": "E. maxima [8]; 90 gm/ton", "result": 2.4333, "unit": "bc"},
      {"measurement": "Lesion Scores, Cecal, E. tenella", "setting": "E. tenella [9]; 90 gm/ton", "result": 2.9667, "unit": "bc"}
    ]},
    {"compound": "CO[C@@H]1[C@@H](OC)[C@H](C)[C@@](O)(CC(=O)O)O[C@H]1[C@H](C)[C@H]1O[C@@]2(CC[C@@](C)([C@H]3CC[C@@](C)([C@@H]4O[C@@H]([C@H]5O[C@](C)(O)[C@H](C)C[C@@H]5C)C[C@@H]4O[C@@H]4C[C@H](OC)[C@@H](OC)[C@H](C)O4)O3)O2)C[C@H](O)[C@H]1C", "note": "[Maduramicin]", "values": [
      {"measurement": "Feed/Gain", "setting": "[6]; 5 ppm, two different sources", "result": "1.8503 cd and 1.8463 cd"},
      {"measurement": "Mortality, %", "setting": "[6]; 5 ppm, two different sources", "result": "6.67 a % and 0 a %"},
      {"measurement": "Weight Gain, gm", "setting": "[6]; 5 ppm, two different sources", "result": "266.67 d gm and 269.33 d gm"},
      {"measurement": "Lesion Scores, Upper, E. acervulina", "setting": "E. acervulina [7]; 5 ppm, two different sources", "result": "2.1000 b and 2.3667 b"},
      {"measurement": "Lesion Scores, Middle, E. maxima", "setting": "E. maxima [8]; 5 ppm, two different sources", "result": "2.2667 b and 2.3000 b"},
      {"measurement": "Lesion Scores, Cecal, E. tenella", "setting": "E. tenella [9]; 5 ppm, two different sources", "result": "2.6000 bc and 2.3333 bc"}
    ]},
    {"compound": "Virginiamycin", "values": [
      {"measurement": "Feed/Gain", "setting": "[1]", "result": 1.891},
      {"measurement": "Weight, gm", "setting": "[1]", "result": 256.3, "unit": "gm"},
      {"measurement": "Lesion Scores, Cecal", "setting": "[1]", "result": 1.17},
      {"measurement": "Lesion Scores, Middle", "setting": "[1]", "result": 1.58},
      {"measurement": "Lesion Scores, Upper", "setting": "[1]", "result": 1.17}
    ]},
    {"compound": "CC[C@@H](C(=O)[C@@H](C)[C@@H](O)[C@H](C)[C@@H]1O[C@@H]([C@@H](CC)C(=O)O)CC[C@@H]1C)[C@H]1O[C@]2(C=C[C@@H](O)[C@]3(CC[C@@](C)([C@H]4CC[C@](O)(CC)[C@H](C)O4)O3)O2)[C@H](C)C[C@@H]1C", "note": "[Salinomycin]", "values": [
      {"measurement": "Feed/Gain", "setting": "[2]; 60 g/ton", "result": 1.624},
      {"measurement": "Weight, gm (average bird weight)", "setting": "[2]; 60 g/ton", "result": 246.3, "unit": "gm"},
      {"measurement": "Average intestinal lesion score, Upper, acervulina", "setting": "E. acervulina [3]; 60 g/ton", "result": 0.76},
      {"measurement": "Average intestinal lesion score, Middle, maxima", "setting": "E. maxima [4]; 60 g/ton", "result": 1.22},
      {"measurement": "Average intestinal lesion score, Cecal, tenella", "setting": "E. tenella [5]; 60 g/ton", "result": 0.68},
      {"measurement": "Feed/Gain", "setting": "[6]; 60 gm/ton", "result": 1.8473, "unit": "cd"},
      {"measurement": "Mortality, %", "setting": "[6]; 60 gm/ton", "result": 6.67, "unit": "a %"},
      {"measurement": "Weight Gain, gm", "setting": "[6]; 60 gm/ton", "result": 269.67, "unit": "d gm"},
      {"measurement": "Lesion Scores, Upper, E. acervulina", "setting": "E. acervulina [7]; 60 gm/ton", "result": 2.1333, "unit": "b"},
      {"measurement": "Lesion Scores, Middle, E. maxima", "setting": "E. maxima [8]; 60 gm/ton", "result": 2.9000, "unit": "bc"},
      {"measurement": "Lesion Scores, Cecal, E. tenella", "setting": "E. tenella [9]; 60 gm/ton", "result": 2.9000, "unit": "bc"}
    ]}
  ]
}
